Assay results published in the supplement of paper PMC10307832.

Key:
Experiment in all cases: relative viability (nuclei count vs DMSO), 5 days (fraction); higher = more cells survive
[1] = test system: 201T
In short: (§1)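 Five library-drug doses in √10 steps were combined with a fixed anchor-drug dose, or a single drug was given alone, by pin tool to lung cancer cell lines in 1536-well plates the day after seeding. Nuclei were stained and counted after 5 days. Relative viability is the nuclei count in treated wells over that in vehicle wells, taken as the median of duplicate plates.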

[2] = test system: BEN
In short: as §1

[3] = test system: COR-L 105
In short: as §1

[4] = test system: EMC-BAC-2
In short: as §1

[5] = test system: H3255
In short: as §1

[6] = test system: HARA
In short: as §1

[7] = test system: HCC-78
In short: as §1

[8] = test system: HOP-62
In short: as §1

[9] = test system: LC-2-ad
In short: as §1

[10] = test system: LOU-NH91
In short: as §1

[11] = test system: LU99A
In short: as §1

[12] = test system: LXF-289
In short: as §1

[13] = test system: NCI-H1395
In short: as §1

[14] = test system: NCI-H1563
In short: as §1

[15] = test system: NCI-H1993
In short: as §1

[16] = test system: NCI-H2087
In short: as §1

[17] = test system: NCI-H2126
In short: as §1

[18] = test system: NCI-H2170
In short: as §1

[19] = test system: NCI-H650
In short: as §1

[20] = test system: RERF-LC-KJ
In short: as §1

[21] = test system: SK-MES-1
In short: as §1

[22] = test system: SW 900
In short: as §1

[23] = test system: UMC-11
In short: as §1

For `Cc1csc(=NC2CCCCC2)n1/N=C/c1ccc(O)c(O)c1O` [MIM1] + COc1cc2c(Oc3ccc(NC(=O)C4(C(=O)Nc5ccc(F)cc5)CC4)cc3F)ccnc2cc1OCCCN1CCOCC1 [Foretinib] (partner 0.25 µM), the relative viability ([1]; first compound 0.2 µM) was 1.11, the relative viability ([1]; first compound 2 µM) was 0.993 and the relative viability ([1]; first compound 6.325 µM) was 0.709. It also gave a relative viability ([1]; first compound 20 µM) of 0.483, a relative viability ([2]; first compound 0.2 µM) of 0.705 and a relative viability ([2]; first compound 0.6325 µM) of 0.531. For the same molecule, the relative viability ([2]; first compound 2 µM) was 0.719, the relative viability ([2]; first compound 6.325 µM) was 0.551 and the relative viability ([2]; first compound 20 µM) was 0.294. It also gave a relative viability ([3]; first compound 0.2 µM) of 1.02, a relative viability ([3]; first compound 0.6325 µM) of 0.821 and a relative viability ([3]; first compound 2 µM) of 1.19. For the same molecule, the relative viability ([3]; first compound 6.325 µM) was 1.08, the relative viability ([3]; first compound 20 µM) was 0.774 and the relative viability ([4]; first compound 0.2 µM) was 0.698. For the same molecule, the relative viability ([4]; first compound 0.6325 µM) was 1, the relative viability ([4]; first compound 2 µM) was 0.963 and the relative viability ([4]; first compound 6.325 µM) was 0.697. For the same molecule, the relative viability ([4]; first compound 20 µM) was 0.449, the relative viability ([5]; first compound 0.2 µM) was 0.945 and the relative viability ([5]; first compound 0.6325 µM) was 0.715. For the same molecule, the relative viability ([5]; first compound 2 µM) was 0.743, the relative viability ([5]; first compound 6.325 µM) was 0.724 and the relative viability ([5]; first compound 20 µM) was 0.307. The relative viability ([6]; first compound 0.2 µM) was 0.954, the relative viability ([6]; first compound 2 µM) was 0.991 and the relative viability ([6]; first compound 6.325 µM) was 0.868. It also gave a relative viability ([6]; first compound 20 µM) of 0.131, a relative viability ([7]; first compound 0.2 µM) of 0.558 and a relative viability ([7]; first compound 0.6325 µM) of 0.563. The relative viability ([7]; first compound 2 µM) was 0.539, the relative viability ([7]; first compound 6.325 µM) was 0.553 and the relative viability ([7]; first compound 20 µM) was 0.911. The relative viability ([8]; first compound 0.2 µM) was 1.14, the relative viability ([8]; first compound 0.6325 µM) was 1.1 and the relative viability ([8]; first compound 2 µM) was 0.986. For the same molecule, the relative viability ([8]; first compound 6.325 µM) was 0.94, the relative viability ([8]; first compound 20 µM) was 0.278 and the relative viability ([9]; first compound 0.2 µM) was 0.896. It also gave a relative viability ([9]; first compound 0.6325 µM) of 0.783, a relative viability ([9]; first compound 2 µM) of 0.745 and a relative viability ([9]; first compound 6.325 µM) of 0.631. The relative viability ([9]; first compound 20 µM) was 0.159, the relative viability ([10]; first compound 0.2 µM) was 0.9 and the relative viability ([10]; first compound 0.6325 µM) was 0.965. For the same molecule, the relative viability ([10]; first compound 2 µM) was 0.833, the relative viability ([10]; first compound 6.325 µM) was 0.807 and the relative viability ([10]; first compound 20 µM) was 0.39. It also gave a relative viability ([11]; first compound 0.2 µM) of 0.808, a relative viability ([11]; first compound 0.6325 µM) of 0.775 and a relative viability ([11]; first compound 2 µM) of 0.751. For the same molecule, the relative viability ([11]; first compound 6.325 µM) was 0.743, the relative viability ([11]; first compound 20 µM) was 0.407 and the relative viability ([12]; first compound 0.2 µM) was 1.02. The relative viability ([12]; first compound 0.6325 µM) was 0.9, the relative viability ([12]; first compound 2 µM) was 1.03 and the relative viability ([12]; first compound 6.325 µM) was 0.789. For the same molecule, the relative viability ([12]; first compound 20 µM) was 0.721, the relative viability ([13]; first compound 0.2 µM) was 1.03 and the relative viability ([13]; first compound 0.6325 µM) was 0.975. It also gave a relative viability ([13]; first compound 2 µM) of 0.905, a relative viability ([13]; first compound 6.325 µM) of 0.917 and a relative viability ([13]; first compound 20 µM) of 0.388. For the same molecule, the relative viability ([14]; first compound 0.2 µM) was 0.971, the relative viability ([14]; first compound 0.6325 µM) was 0.975 and the relative viability ([14]; first compound 2 µM) was 0.866. For the same molecule, the relative viability ([14]; first compound 6.325 µM) was 0.819, the relative viability ([14]; first compound 20 µM) was 0.772 and the relative viability ([15]; first compound 0.2 µM) was 0.7. It also gave a relative viability ([15]; first compound 0.6325 µM) of 0.715, a relative viability ([15]; first compound 2 µM) of 0.671 and a relative viability ([15]; first compound 6.325 µM) of 0.659. For the same molecule, the relative viability ([15]; first compound 20 µM) was 0.64, the relative viability ([16]; first compound 0.2 µM) was 1.04 and the relative viability ([16]; first compound 0.6325 µM) was 1.31. For the same molecule, the relative viability ([16]; first compound 2 µM) was 1.18, the relative viability ([16]; first compound 6.325 µM) was 0.813 and the relative viability ([16]; first compound 20 µM) was 0.847. It also gave a relative viability ([17]; first compound 0.2 µM) of 1.14, a relative viability ([17]; first compound 0.6325 µM) of 1.17 and a relative viability ([17]; first compound 2 µM) of 1.35. The relative viability ([17]; first compound 6.325 µM) was 1.12, the relative viability ([17]; first compound 20 µM) was 0.491 and the relative viability ([18]; first compound 0.2 µM) was 0.979. The relative viability ([18]; first compound 0.6325 µM) was 1.01, the relative viability ([18]; first compound 2 µM) was 0.824 and the relative viability ([18]; first compound 6.325 µM) was 0.77. The relative viability ([18]; first compound 20 µM) was 0.295, the relative viability ([19]; first compound 0.2 µM) was 1.05 and the relative viability ([19]; first compound 0.6325 µM) was 1.05. For the same molecule, the relative viability ([19]; first compound 2 µM) was 1.02, the relative viability ([19]; first compound 6.325 µM) was 0.924 and the relative viability ([19]; first compound 20 µM) was 0.412. For the same molecule, the relative viability ([20]; first compound 0.2 µM) was 0.887, the relative viability ([20]; first compound 0.6325 µM) was 0.808 and the relative viability ([20]; first compound 2 µM) was 0.803. It also gave a relative viability ([20]; first compound 6.325 µM) of 0.637, a relative viability ([20]; first compound 20 µM) of 0.24 and a relative viability ([21]; first compound 0.2 µM) of 0.897. For the same molecule, the relative viability ([21]; first compound 0.6325 µM) was 0.891, the relative viability ([21]; first compound 2 µM) was 0.861 and the relative viability ([21]; first compound 6.325 µM) was 0.805. The relative viability ([21]; first compound 20 µM) was 0.758, the relative viability ([22]; first compound 0.2 µM) was 1.17 and the relative viability ([22]; first compound 0.6325 µM) was 0.864. For the same molecule, the relative viability ([22]; first compound 2 µM) was 0.854, the relative viability ([22]; first compound 6.325 µM) was 0.917 and the relative viability ([22]; first compound 20 µM) was 0.443. For the same molecule, the relative viability ([23]; first compound 0.2 µM) was 1.07, the relative viability ([23]; first compound 2 µM) was 1.2 and the relative viability ([23]; first compound 6.325 µM) was 0.703. It also gave a relative viability ([23]; first compound 20 µM) of 0.335.
